Entries after “also recorded” stand apart in the source; their conditions may differ.
Tests used:
[1] = tested on: cisplatin-resistant human lung cancer (HTB-161) cells; assay: In vitro radiosensitizing effect, 18-day clonogenic assay; assay type: cell-based; conditions: HTB-161, 12-hr treatment, 0-10 Gy 225 keV X-ray
Text: (§1) Dibromo-diamino-benzene (Dibromo-phenylenediamine, Compound B) was obtained from TCI—America. Diiodo-diaminobenzene (Compound C) were synthesized, purified and crystallized in our laboratory, and the structures and purity were examined by NMR and mass spectrometry. MEM and fetal bovine serum (FBS), penicillin G and streptomycin were obtained from Hyclone Laboratories (UT, USA). Stock solution of cisplatin was freshly prepared in ultrapure water or saline, and stock solutions of Compounds A, B, C, D were prepared in pure ethanol, where the final concentration of ethanol was ≦1% when treated to cells.
A human skin diploid fibroblast (GM05757 cell line) was obtained from the Coriell Cell Repository directly, while the human cervical cancer cell line (HeLa, ATCC#: CCL-2; or ME-180), human ovarian cancer cell line (NIH:OVCAR-3, ATCC#: HTB-161) and human lung cancer cell line (A549, ATCC#: CCL-185™), together with RPMI 1640, F-12K, McCoy's 5 A and L-15 culture media, were obtained from the American Type Culture Collection (ATCC) directly. Fetal bovine serum (FBS) was obtained from Hyclone Laboratories (UT, USA). The GM05757 normal cells and HeLa cells were cultivated with MEM (Hyclone) supplemented with 10% FBS, 100 units/mL penicillin G and 100 μg/mL streptomycin (Hyclone). […]

[2] = tested on: human normal cells (GM05757); assay: In vitro toxicity in human normal cells, 72-hr treatment, MTT assay; assay type: cell-based; conditions: GM05757, 72-hr treatment, without ionizing radiation, 0-50 μM cisplatin, 0-200 μM compounds
Text: as §1, with “TCI-America.” for “TCI—America.”
A human skin diploid fibroblast (GM05757 cell line) was obtained from the Coriell Cell Repository directly. Fetal bovine serum (FBS) was obtained from Hyclone Laboratories (UT, USA). The GM05757 normal cells were cultivated with MEM (Hyclone) supplemented with 10% FBS, 100 units/mL penicillin G and 100 μg/mL streptomycin (Hyclone). The cells were maintained at 37° C. in a humidified atmosphere containing 5% CO2.
(§2) The radiosensitizing effects of RSCs on cell viability were determined by the 3-[4,5-dimethylthiazol-2-yl]-2,5-diphenyl tetrazoliumbromide (MTT) assay. Cells were cultured in 96-well plates (5×10^3 cells/well) for 24 h. The culture medium was replaced by fresh culture medium and incubated for 72 h with varying drug concentrations. The MTT assay of cell viability was then conducted. Briefly, 100 μl new medium without phenol red containing 1.2 mM MTT (sigma) (i.e., adding 10 μl 12 mM MTT stock solution in PBS) were added to each well and incubated for 4 h. The medium was then removed, and the formazan crystals solubilized by 100 μL/well DMSO (or alternatively by 100 μl/well SDS and incubated for another 4 h). The surviving fraction was determined by measuring the absorbance at 540 nm (570 nm for SDS solubilization) using a Multiskan Spectrum UV/Vis microplate reader (Thermo Scientific), which is directly proportional to the number of viable cells.

[3] = tested on: various human cancer cells; assay: In vitro radiosensitizing effects in various human cancer cells (FIG. 14-21); assay type: cell-based; conditions: 12 hr treatment, then various doses of 225 keV X-ray
Text: as §1
(§3) A human skin diploid fibroblast (GM05757 cell line) was obtained from the Coriell Cell Repository directly, while the human cervical cancer cell line (HeLa, ATCC#: CCL-2; or ME-180), human ovarian cancer cell line (NIH:OVCAR-3, ATCC#: HTB-161) and human lung cancer cell line (A549, ATCC#: CCL-185™), together with RPMI 1640, F-12K, McCoy's 5 A and L-15 culture media, were obtained from the American Type Culture Collection (ATCC) directly. Fetal bovine serum (FBS) was obtained from Hyclone Laboratories (UT, USA). The GM05757 normal cells and HeLa cells were cultivated with MEM (Hyclone) supplemented with 10% FBS, 100 units/mL penicillin G and 100 μg/mL streptomycin (Hyclone). The complete growth media for ME-180, NIH:OVCAR-3, A549 and MDA-MB-231 cells were the ATCC-formulated McCoy's 5 A Medium supplemented with 10% FBS, RPMI 1640 medium with 20%, F-12K medium with 10% FBS, and L-15 Medium (Leibovitz) with 10% FBS, respectively. The cells were maintained at 37° C. in a humidified atmosphere containing 5% CO2.
as §2, with “12” for “72”, “concentrations. The cells were then irradiated by 225 kV X-ray (PRECISION X-RAD IR 225) at a dose rate of 2 Gy/min with various X-ray doses. After irradiation, the cells were incubated for 6 days.” for “concentrations.”

[4] = tested on: human cervical cancer (ME-180) cells; assay: In vitro radiosensitizing effect, MTT assay 6 days after X-ray, ME-180; assay type: cell-based
Text: as §1, §3
as §2, with “12” for “72”, “concentrations. The cells were then irradiated by 225 kV X-ray (PRECISION X-RAD IR 225) at a dose rate of 2 Gy/min with various X-ray doses. After irradiation, the cells were incubated for 6 days.” for “concentrations.”

[5] = tested on: plasmid DNA [pGEM 3Zf(−)]; assay: Agarose gel electrophoresis of ionizing-radiation-induced damage to plasmid DNA; assay type: biochemical, Escherichia Coli JM 109; conditions: 200 μM compound; two-UV-photon ionizing radiation of water; versus pure water
Text: Ultrapure water for life science with a resistivity of >18.2 MΩ/cm and TOC<1 ppm obtained freshly from a Barnstead Nanopure water system was used. Dibromo-diamino-benzene (Dibromo-phenylenediamine, Compound B) was obtained from TCI-America, while other chemicals and buffer compositions were obtained from Sigma-Aldrich. Plasmid DNA [pGEM 3Zf(−), […]] was extracted from Escherichia Coli JM 109 and purified using QIAprep Kit (Qiagen).
The pump beam at 322 nm, identical to that for fs-TRLS measurements, was used to produce radicals via two-photon excitation of water in DNA solutions. The laser beam was focused into a quartz cell containing 3.0 μg of DNA in 200 μL of buffer solutions. The solutions were stirred during irradiation to produce uniform DNA damage throughout the samples. Aliquots equivalent to 96 ng DNA were removed from the sample cell in various irradiation times for gel electrophoresis. All aliquots were analyzed with a standard agarose gel electrophoresis method, namely, on 1% neutral TAE agarose gel in TAE running buffer. The gel was prestained with 0.5 μg/ml ethidium bromide. […] They were quantified with an AlphaEase FC software.

## Nc1cc(Br)c(Br)cc1N [Compound B, 4,5-dibromo-1,2-phenylenediamine]
[1]
  enhancement of radiosensitivity of cisplatin-resistant cancer cells to X-ray: significant enhancement in the radiosensitivity
[2]
  toxicity toward human normal cells: essentially no toxicity; also recorded: little toxicity up to 200 μM
[3]
  killing of cancer cells in combination with radiation: enhanced the killing of cancer cells in a radiation dose dependent manner and in synergy with radiation; also recorded: enhances the effectiveness of ionizing radiation to kill tumor cells
[4]; ME-180, 12-hr treatment, 0-10 Gy 225 keV X-ray, MTT at 6 days
  enhancement of radiosensitivity of cancer cells to X-ray: significant enhancement in the radiosensitivity
[4]; ME-180, 50 Gy x-ray with about 100 μM compound, about 20% survived without any RSC
  killing of cancer cells: early all cancer cells were killed
[5]
  radiation-induced DNA double-strand breaks (DSBs): significantly enhanced; also recorded: significant enhancement of DSBs

From patent US9655965B2, “Radiosensitizer compounds for use in combination with radiation” (priority 2013, dated 2017)
